These results are taken from US20220023306A1, “USE OF A PPAR-DELTA AGONIST IN THE TREATMENT OF FATTY ACID OXIDATION DISORDERS (FAOD)” (Reneo Pharmaceuticals, Inc., priority 2019, published 2022).

What all share (assay type): cell-based
The target of one assay is T1, hPPARα (Homo sapiens, UniProt Q07869).
T1 construct: expressed in transfected cells; host or cells: HEK293
T1 sequence (Q07869 239-466 limits assumed): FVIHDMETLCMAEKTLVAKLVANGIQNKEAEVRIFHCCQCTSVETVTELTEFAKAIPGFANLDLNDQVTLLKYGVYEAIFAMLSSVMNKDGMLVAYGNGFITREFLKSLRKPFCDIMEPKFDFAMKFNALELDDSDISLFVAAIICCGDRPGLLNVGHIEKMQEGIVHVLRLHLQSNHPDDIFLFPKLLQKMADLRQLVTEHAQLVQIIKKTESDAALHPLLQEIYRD
The experiment in a line: PPAR transient transactivation assay, hPPARα. As to the method:
(§1) “Activation” herein is defined as the abovementioned downstream response, which in the case of PPAR's is gene transcription. Gene transcription, in some cases, is measured indirectly as downstream production of proteins reflective of the activation of the particular PPAR subtype under study. Alternatively, an artificial reporter construct, in some cases, is employed to study the activation of the individual PPAR's expressed in cells. The ligand binding domain of the particular receptor to be studied, in some embodiments, is fused to the DNA binding domain of a transcription factor, which produces convenient laboratory readouts, such as the yeast GAL4 transcription factor DNA binding domain. The fusion protein, in some cases, is transfected into a laboratory cell line along with a Gal4 enhancer, which effects the expression of the luciferase protein. When such a system is transfected into a laboratory cell line, binding of a receptor agonist to the fusion protein will result in light emission.
(§2) The PPAR transient transactivation assay, in some cases, is based on transient transfection into human HEK293 cells of two plasmids encoding a chimeric test protein and a reporter protein respectively. […] The amount of luciferase protein is measured by light emission after addition of the appropriate substrate. […]

The next assay addresses T2, hPPARγ (Homo sapiens, UniProt P37231).
T2 construct: expressed in transfected cells; host or cells: HEK293
T2 sequence (P37231 238-503 limits assumed): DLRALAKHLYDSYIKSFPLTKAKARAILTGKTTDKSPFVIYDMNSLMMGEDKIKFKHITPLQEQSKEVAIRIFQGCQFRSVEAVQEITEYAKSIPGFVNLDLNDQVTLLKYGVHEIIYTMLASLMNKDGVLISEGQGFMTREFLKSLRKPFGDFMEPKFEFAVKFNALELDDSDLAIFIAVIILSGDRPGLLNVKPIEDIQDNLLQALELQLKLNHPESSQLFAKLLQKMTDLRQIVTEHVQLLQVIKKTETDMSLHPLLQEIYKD
The assay is described as follows: PPAR transient transactivation assay, hPPARγ. On the procedure:
as §1, §2

The subject of assay [1] is human retinoid X receptor (hRXR). The experiment in a line: human retinoid X receptor (hRXR) activity.
In the next assay the target is T3, FXR (Homo sapiens, UniProt Q96RI1).
T3 sequence (Q96RI1 1-486): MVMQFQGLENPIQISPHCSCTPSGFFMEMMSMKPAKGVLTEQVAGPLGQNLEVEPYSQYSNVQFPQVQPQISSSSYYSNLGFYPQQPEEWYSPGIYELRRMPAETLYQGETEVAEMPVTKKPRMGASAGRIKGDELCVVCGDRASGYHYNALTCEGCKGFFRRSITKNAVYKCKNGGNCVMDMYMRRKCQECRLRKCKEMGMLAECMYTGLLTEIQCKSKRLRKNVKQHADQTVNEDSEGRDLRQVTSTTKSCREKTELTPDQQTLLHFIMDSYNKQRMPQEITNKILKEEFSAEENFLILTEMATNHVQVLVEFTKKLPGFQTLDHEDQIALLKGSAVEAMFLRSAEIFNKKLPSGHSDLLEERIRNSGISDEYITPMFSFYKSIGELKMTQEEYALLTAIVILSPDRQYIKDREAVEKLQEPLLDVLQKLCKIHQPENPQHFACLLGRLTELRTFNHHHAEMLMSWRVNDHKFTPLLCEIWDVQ
The experiment in a line: activity on nuclear receptor FXR.

Each structure is given as a SMILES string.

Consider `Cc1cc(OC/C=C(/c2ccc(F)cc2)c2ccc(C#CCN3CCOCC3)cc2)ccc1OCC(=O)O` [Compound 1, (E)-[4-[3-(4-Fluorophenyl)-3-[4-[3-(morpholin-4-yl)propynyl]phenyl]allyloxy]-2-methyl-phenoxy]acetic acid], for which, at hPPARα, the “activity on PPARα in transactivation assays” value is “negligible activity” and the “type of agonism on PPARα” value is reported as “partial agonist”. In addition, on hPPARγ, the “activity on PPARγ in transactivation assays” value is on record as “negligible activity” and the “type of agonism on PPARγ” value is listed as “partial agonist”. Further, the hRXR activity result in assay [1] is reported as “did not show any”. At FXR, the “activity on FXR” value was “did not show any”.
